Results published in patent US20260083864A1, “CONTRAST AGENTS FOR USE IN DIAGNOSTIC COMPUTED TOMOGRAPHY IMAGING” (Bayer Aktiengesellschaft, priority 2022, published 2026).

Experiments:
[1] = Water solubility in aqueous buffer; conditions: aqueous buffer 10 mM Tris-HCl, pH 7.4, 20° C.
Protocol: The solid compounds were added stepwise to the buffer solution. More substance is added once all the suspended material is dissolved until an equilibrium between undissolved and dissolved substance is reached. The suspension was mixed using a shaker (Heidolph Reax 2000) and treated 5 min in an ultrasound bath (Bandelin, Sonorex Super RK255H).

[2] = Relaxivity measurements at 1.41 T in water; type: physicochemical; conditions: 37° C., normalized to Gd
Procedure, shortened: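 T1 by inversion recovery and T2 by CPMG at 1.41 T (60 MHz), 37° C, relaxation delay ≥5×T1. Three Gd concentrations between 0.05 and 2 mM; relaxivities derived from measured relaxation rates in water.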

[3] = Relaxivity measurements at 1.41 T in human plasma; type: physicochemical; conditions: 37° C., normalized to Gd
Procedure, shortened: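 T1 determined by inversion recovery (8 inversion-time steps) and T2 by CPMG sequence, both with relaxation delay ≥5×T1. Each relaxivity used three Gd concentrations between 0.05 and 2 mM. Relaxivities were derived from relaxation rates measured in water and plasma.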

OATP1B1 = molecular target: T1, OATP1B1 (Homo sapiens, UniProt Q9Y6L6); assay: Uptake into stable transfected OATP1B1 HEK 293 cells; type: cell-based; conditions: for Uptake into OATP1B1-HEK 293 cells: 40 min incubation, relative to RC1 (Gd-EOB-DTPA); for Inhibition Rifampicine: uptake into OATP1B1-HEK 293 cells
T1 sequence (Q9Y6L6 1-691): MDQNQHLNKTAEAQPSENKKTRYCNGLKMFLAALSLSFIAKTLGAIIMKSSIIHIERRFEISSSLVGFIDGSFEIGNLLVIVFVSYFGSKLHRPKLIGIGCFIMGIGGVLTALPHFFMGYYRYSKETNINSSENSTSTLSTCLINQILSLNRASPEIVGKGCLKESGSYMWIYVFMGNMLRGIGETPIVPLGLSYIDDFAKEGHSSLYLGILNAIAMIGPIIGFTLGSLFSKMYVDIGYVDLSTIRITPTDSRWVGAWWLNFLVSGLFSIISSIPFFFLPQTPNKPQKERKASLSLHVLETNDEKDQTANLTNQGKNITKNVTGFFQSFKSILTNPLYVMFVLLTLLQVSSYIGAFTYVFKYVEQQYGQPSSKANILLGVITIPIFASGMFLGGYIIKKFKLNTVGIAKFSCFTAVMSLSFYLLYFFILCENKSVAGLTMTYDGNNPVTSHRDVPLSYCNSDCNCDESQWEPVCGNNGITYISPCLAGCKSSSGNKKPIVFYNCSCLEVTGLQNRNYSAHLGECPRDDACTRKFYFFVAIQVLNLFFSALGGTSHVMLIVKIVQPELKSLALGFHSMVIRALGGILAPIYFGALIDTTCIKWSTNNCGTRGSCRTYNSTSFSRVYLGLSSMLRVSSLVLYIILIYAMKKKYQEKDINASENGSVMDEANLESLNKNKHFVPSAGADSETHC
Procedure, shortened: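 Uptake measured in triplicate after a 40 min, unshaken exposure of OATP1B1-expressing HEK293 cells to 100 µM (final) compound in transport buffer. Cold PBS wash stopped uptake; Gd-EOB-DTPA served as reference standard within each plate.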

OATP1B3 = molecular target: T2, OATP1B3 (Homo sapiens, UniProt Q9NPD5); assay: Uptake into stable transfected OATP1B3 HEK 293 cells; type: cell-based; conditions: for Uptake into OATP1B3-HEK 293 cells: 40 min incubation, relative to RC1 (Gd-EOB-DTPA); for Inhibition Rifampicine: uptake into OATP1B3-HEK 293 cells
T2 sequence (Q9NPD5 1-702): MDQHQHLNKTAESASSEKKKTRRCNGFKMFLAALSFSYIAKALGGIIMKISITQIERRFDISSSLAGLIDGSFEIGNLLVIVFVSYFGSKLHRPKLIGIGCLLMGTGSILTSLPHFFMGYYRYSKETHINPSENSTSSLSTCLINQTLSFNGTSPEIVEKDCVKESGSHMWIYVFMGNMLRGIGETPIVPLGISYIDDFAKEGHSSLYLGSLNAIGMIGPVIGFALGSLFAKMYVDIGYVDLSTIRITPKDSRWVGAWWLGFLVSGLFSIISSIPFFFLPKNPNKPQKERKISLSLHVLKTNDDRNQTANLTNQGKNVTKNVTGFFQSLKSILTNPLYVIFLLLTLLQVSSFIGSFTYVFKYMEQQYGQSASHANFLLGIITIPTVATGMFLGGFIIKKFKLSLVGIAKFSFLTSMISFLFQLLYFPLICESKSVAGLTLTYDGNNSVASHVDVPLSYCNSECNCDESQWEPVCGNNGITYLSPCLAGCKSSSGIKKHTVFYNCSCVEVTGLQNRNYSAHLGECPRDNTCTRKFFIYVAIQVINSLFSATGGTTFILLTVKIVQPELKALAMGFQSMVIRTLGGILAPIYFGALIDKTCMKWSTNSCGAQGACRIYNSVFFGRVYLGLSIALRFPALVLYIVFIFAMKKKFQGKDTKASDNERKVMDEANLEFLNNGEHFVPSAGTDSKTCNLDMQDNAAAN
Procedure, shortened: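 HEK 293 cells stably transfected with human OATP1B3 were incubated for 40 min with test items at 100 μM final in transport buffer, in triplicate, then washed with cold PBS. Gadoxetate (Gd-EOB-DTPA) served as the reference standard on the same plate.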

[4] = Partition coefficient (log P butanol/buffer); type: physicochemical; conditions: 1-butanol / 50 mM Tris-HCl, pH 7.4, room temperature
[5] = tested on: freshly isolated rat hepatocytes; assay: Uptake into freshly isolated rat hepatocytes; conditions: for Uptake rat hepatocytes: 100 μmol Gd/L, 10 min, 37° C., relative to RC1 (Gd-EOB-DTPA); for Inhibition Rifampicine: rat hepatocyte uptake, test item and Rifampicine 1:1, each 100 μM

Row | SMILES | Solubility [1] | r1 water [2] | r1 human plasma [3] | Uptake into OATP1B1-HEK 293 cells (OATP1B1) | Inhibition Rifampicine (OATP1B1) | Uptake into OATP1B3-HEK 293 cells (OATP1B3) | Inhibition Rifampicine (OATP1B3) | Log P (partition coefficient butanol/buffer) [4] | Uptake rat hepatocytes [5] | Inhibition Rifampicine [5]
1 | CCCC(C(=O)[O-])N1CCN(CC(=O)[O-])CCN(C(Cc2ccc(OCC)cc2)C(=O)O)CCN(CC(=O)[O-])CC1.[Gd+3] (centres unmarked) [Example 29, gadolinium 2-{7-[1-carboxy-2-(4-ethoxyphenyl)ethyl]-4,10-bis(carboxylatomethyl)-1,4,7,10-tetraazacyclododecan-1-yl}pentanoate] | >305 mM | 4.4 L/mmol/s | 7.5 L/mmol/s | 493 % of RC1 | 96 % inhibition | 75 % of RC1 | 99 % inhibition | −0.53 | 87 % of RC1 | 99 % inhibition
2 | CCOCCOCCOCCOc1ccc(CC(C(=O)O)N2CCN(CC(=O)[O-])CCN(C(COC)C(=O)[O-])CCN(CC(=O)[O-])CC2)cc1.[Gd+3] (centres unmarked) [Example 13, gadolinium 2-{7-[1-carboxy-2-(4-{2-[2-(2-ethoxyethoxy)ethoxy]ethoxy}phenyl)ethyl]-4,10-bis(carboxylatomethyl)-1,4,7,10-tetraazacyclododecan-1-yl}-3-methoxypropanoate] | 67 mM | 5.2 L/mmol/s | 7.0 L/mmol/s | 109 % of RC1 | 30 % inhibition | 31 % of RC1 | 93 % inhibition | −1.53 | 49 % of RC1 | 86 % inhibition
3 | CCOCCOCCOc1ccc(CC(C(=O)O)N2CCN(CC(=O)[O-])CCN(C(CO)C(=O)[O-])CCN(CC(=O)[O-])CC2)cc1.[Gd+3] (centres unmarked) [Example 41, gadolinium-2-{7-[1-carboxy-2-{4-[2-(2-ethoxyethoxy)ethoxy]phenyl}ethyl]-4,10-bis(carboxylatomethyl)-1,4,7,10-tetraazacyclododecan-1-yl}-3-hydroxypropanoate] | >13 mM | 4.5 L/mmol/s | 5.7 L/mmol/s | 218 % of RC1 | 30 % inhibition | 47 % of RC1 | 74 % inhibition | −1.61 | 52 % of RC1 | 56 % inhibition
4 | CCOCCOCCOc1ccc(CCC[C@H](C(=O)O)N2CCN([C@@H](CO)C(=O)[O-])CCN([C@@H](CO)C(=O)[O-])CCN([C@@H](CO)C(=O)[O-])CC2)cc1.[Gd+3] [Example 18, gadolinium (2S,2'S,2″'S)-2,2′,2″-{10-[(1R)-1-carboxy-4-{4-[2-(2-ethoxyethoxy)ethoxy]phenyl}butyl]-1,4,7,10-tetraazacyclododecane-1,4,7-triyl}tris(3-hydroxypropanoate)] | >354 mM | 5.5 L/mmol/s | 7.7 L/mmol/s | – | 76 % inhibition | – | 96 % inhibition | −1.11 | 75 % of RC1 | 91 % inhibition
5 | CCCC(C(=O)[O-])N1CCN(CC(=O)[O-])CCN(C(Cc2ccc(OCC)cc2)C(=O)O)CCN(CC(=O)[O-])CC1.[Gd+3] (centres unmarked) [Example 30, gadolinium 2-{7-[1-carboxy-2-(4-ethoxyphenyl)ethyl]-4,10-bis(carboxylatomethyl)-1,4,7,10-tetraazacyclododecan-1-yl}pentanoate] | >35 mM | 4.7 L/mmol/s | 7.6 L/mmol/s | 169 % of RC1 | 90 % inhibition | 62 % of RC1 | 98 % inhibition | −0.60 | 75 % of RC1 | 99 % inhibition
6 | CCOCCOCCOc1cc(CC(C(=O)O)N2CCN(CC(=O)[O-])CCN(CC(=O)[O-])CCN(CC(=O)[O-])CC2)cc(OCCOCCOCC)c1.[Gd+3] (centres unmarked) [Example 39, gadolinium 2,2′,2″-{10-[2-{3,5-bis[2-(2-ethoxyethoxy)ethoxy]phenyl}-1-carboxyethyl]-1,4,7,10-tetraazacyclododecane-1,4,7-triyl}triacetate] | >255 mM | 4.8 L/mmol/s | 7.8 L/mmol/s | 59 % of RC1 | 12 % inhibition | 26 % of RC1 | 88 % inhibition | −1.32 | 17 % of RC1 | 64 % inhibition
7 | CCOCCOCCOCCOc1ccc(CC(C(=O)O)N2CCN(CC(=O)[O-])CCN(C(CO)C(=O)[O-])CCN(CC(=O)[O-])CC2)cc1.[Gd+3] (centres unmarked) [Example 42, gadolinium-2-{7-[1-carboxy-2-(4-{2-[2-(2-ethoxyethoxy)ethoxy]ethoxy}phenyl)ethyl]-4,10-bis(carboxylatomethyl)-1,4,7,10-tetraazacyclododecan-1-yl}-3-hydroxypropanoate] | >81 mM | 5.0 L/mmol/s | 7.2 L/mmol/s | 89 % of RC1 | 62 % inhibition | 20 % of RC1 | 91 % inhibition | −1.60 | 44 % of RC1 | 95 % inhibition
